Assay results as given in US7834040B2, “Isoxazolic derivative to relieve neuropathic pain” (Zambon S.p.A., priority 2004, dated 2010).
“Also recorded” adds a separate entry of the source.

How the values were obtained:
[1] = tested on: neuropathic pain caused by chronic constrictive lesion of the sciatic nerve of the rat's hind leg (CCI); test: Mechanical allodinia in the CCI model of neuropathic pain (chronic constrictive lesion of the sciatic nerve); format: in vivo, male rats of Wistar strain
Text: The effectiveness of the compound of formula (I) has been tested experimentally in two different models of neuropathic pain caused by chronic constrictive lesion of the sciatic nerve of the rat's hind leg (CCI) and by the ligament of the rat's spinal nerve (SNL), according to the procedure reported in the following experimental part. To a group of male rats of Wistar strain a peripheral neuropathy has been induced by means of ligature of the sciatic nerve (CCI) according to the Bennet and Xie model (Pain 33:87-107, 1988). In order to evaluate the neuropathic pain, the development of mechanical allodinia was measured by calculating the average of the pain perception thresholds in the animals' legs in response to mechanical stimuli, following the method described by Chaplan et al. (Journal Neurosci. Method. 53:55-63, […]). In the first group of experiments the measurements have been carried out before and 14 days after the ligature of the […] (CCI). In the second group of experiments the same parameter has been similarly evaluated before and 14 days after the ligature of the spinal nerve (SNL). In both groups, the mechanical allodinia threshold has been measured before (pre-treatment) and 0.5, 1, 2, 4 and 6 hours after treatment by oral route with the compound of formula (I) at doses of 3, 30 and 300 mg/kg.

[2] = tested on: neuropathic pain caused by the ligament of the rat's spinal nerve (SNL); test: Mechanical allodinia in the SNL model of neuropathic pain (ligature of the spinal nerve); format: in vivo, male rats of Wistar strain
Text: The effectiveness of the compound of formula (I) has been tested experimentally in two different models of neuropathic pain caused by chronic constrictive lesion of the sciatic nerve of the rat's hind leg (CCI) and by the ligament of the rat's spinal nerve (SNL), according to the procedure reported in the following experimental part. To a second group of male rats of Wistar strain a peripheral neuropathy has been induced by means of ligature of the spinal nerve according to the modified method described by Kim and Chung and which is constituted by the ligature of two (L5-L6) of the three spinal nerves which form the sciatic nerve (Pain 50:355-363, 1992). In order to evaluate the neuropathic pain, the development of mechanical allodinia was measured by calculating the average of the pain perception thresholds in the animals' legs in response to mechanical stimuli, following the method described by Chaplan et al. (Journal Neurosci. Method. 53:55-63, […]). In the first group of experiments the measurements have been carried out before and 14 days after the ligature of the […] (CCI). In the second group of experiments the same parameter has been similarly evaluated before and 14 days after the ligature of the spinal nerve (SNL). In both groups, the mechanical allodinia threshold has been measured before (pre-treatment) and 0.5, 1, 2, 4 and 6 hours after treatment by oral route with the compound of formula (I) at doses of 3, 30 and 300 mg/kg.

[3] = tested on: neuropathic pain; settings: Rashid et al., J. Pharmacol. Exp. Ther. 303:226-231, 2002; cited from earlier work
[4] = oral route, 3, 30 and 300 mg/kg, 0.5-6 hours after treatment, 14 days after ligature

Cc1cc(C(=O)NCCCC(=O)O)on1 [compound of formula (I)]
dose from which the antiallodinic effect is statistically significative ([1]; oral route): ≥ 3 mg/kg
time after treatment up to which the antiallodinic effect is detected ([1]; oral route): up to 6 hours
mechanical allodinia (pain perception threshold to mechanical stimuli) [1, 4]: reduced in a dose-depending way the mechanical allodinia; also recorded: marked reduction in the neuropathic allodinia
dose from which the antiallodinic effect is statistically significative ([2]; oral route): ≥ 3 mg/kg
time after treatment up to which the antiallodinic effect is detected ([2]; oral route): up to 6 hours
mechanical allodinia (pain perception threshold to mechanical stimuli) [2, 4]: reduced in a dose-depending way the mechanical allodinia; also recorded: marked reduction in the neuropathic allodinia

NC(=O)CN1CCCC1=O [piracetam]
analgesic effect with respect to the neuropathic pain [3]: do not produce significant analgesic effects

Cc1cccc(C)c1NC(=O)CN1CCCC1=O [nefiracetam]
analgesic effect with respect to the neuropathic pain [3]: powerful analgesic effect

CC[C@H](C(N)=O)N1CCCC1=O [levitiracetam]
analgesic effect with respect to the neuropathic pain [3]: do not produce significant analgesic effects

NC(=O)CN1CC(O)CC1=O (stereo not shown) [oxiracetam]
analgesic effect with respect to the neuropathic pain [3]: do not produce significant analgesic effects
